Here are results for seven compounds from PubChem BioAssay (NCI).

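1) Cells in 96-well plates. 2) Compound, 48 h, 5 concentrations. 3) Linear interpolation between surrounding doses. 4) Unreached endpoint = highest concentration. TGI: total growth inhibition.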 Where a SMILES comes first, the peptide text is derived from it. [ ]: non-standard residue; d: D form. The star is where a group is joined. ξ: configuration not given here. dThr(3ξ) = CC(O)[C@@H](N)C(=O)O; dNMeL = CN[C@H](CC(C)C)C(=O)O; OBn = c1ccc(CO*)cc1; ξLac = CC(O)C(=O)O

Among the test systems are OVCAR-5 ovarian; PC-3 prostate; A498 renal; HCC-2998 colon; CCRF-CEM leukemia; ACHN renal; SF-295 CNS; SR leukemia; HCT-15 colon; HCT-116 colon; MDA-N; OVCAR-4 ovarian; RPMI-8226 leukemia; T-47D breast; SNB-75 CNS; EKVX NSCLC; MDA-MB-231 breast; UACC-62 melanoma; NCI-H460 lung; NCI-H226 lung.
Common to all, as to assay: NCI-60 cell line screen, 48 h

In the case of `COC(=O)[C@@H]1C[C@H]([Se]c2ccccc2)CN1S(=O)(=O)c1ccc(C)cc1`, the TGI in the assay on OVCAR-5 ovarian, in the assay with PC-3 prostate, with A498 renal, in the assay with HCC-2998 colon, in the assay with CCRF-CEM leukemia and in the assay on ACHN renal was greater than 100 µM throughout. Besides, the TGI in the assay with SF-295 CNS, in the assay on SR leukemia, in the assay with HCT-15 colon, with HCT-116 colon, with MDA-N and in the assay with OVCAR-4 ovarian was greater than 100 µM throughout. In addition, the TGI with RPMI-8226 leukemia is greater than 100 µM; in the assay with T-47D breast it was greater than 100 µM; in the assay on SNB-75 CNS, 44.5 µM; with EKVX NSCLC it was greater than 100 µM; with MDA-MB-231 breast it was greater than 100 µM; with UACC-62 melanoma it was greater than 100 µM. The TGI in the assay with NCI-H460 lung and with NCI-H226 lung was greater than 100 µM in each case.

For `CC(=O)OC(C)[C@@H](NC(=O)[C@@H](CC(C)C)N(C)C(=O)[C@@H]1CCCN1C(=O)C(C)O)C(=O)OCc1ccccc1` (stereo not given in full) (H-[ξLac]P[dNMeL][dThr(3ξ)](Ac)-OBn), the TGI with OVCAR-5 ovarian, with PC-3 prostate, with A498 renal, with HCC-2998 colon, with CCRF-CEM leukemia and in the assay with ACHN renal was greater than 100 µM each time. Also, the TGI in the assay with SF-295 CNS, in the assay with SR leukemia, in the assay on HCT-15 colon, with HCT-116 colon, in the assay with MDA-N and in the assay with OVCAR-4 ovarian was greater than 100 µM in each case. For the same compound, the TGI in the assay on RPMI-8226 leukemia, with T-47D breast, in the assay on SNB-75 CNS, in the assay on EKVX NSCLC, in the assay on MDA-MB-231 breast and with UACC-62 melanoma was greater than 100 µM each time. Further, the TGI in the assay with NCI-H460 lung and in the assay with NCI-H226 lung was greater than 100 µM in each case.

As to `C=C1C[C@@H](O)[C@@H](Br)C(C)(C)[C@]12CCC(C)(Cl)C(Br)C2` (stereo not given in full), the TGI in the assay on OVCAR-5 ovarian was 19.8 µM; with PC-3 prostate it was 8.17 µM; in the assay with A498 renal, 97.5 µM; with HCC-2998 colon, 35.3 µM; in the assay with CCRF-CEM leukemia, greater than 100 µM; in the assay with ACHN renal, greater than 87.5 µM. Further, the TGI in the assay with SF-295 CNS was greater than 85.3 µM; in the assay on SR leukemia it was greater than 100 µM; with HCT-15 colon, greater than 100 µM; in the assay with HCT-116 colon it was greater than 100 µM; in the assay with MDA-N, greater than 59.8 µM; in the assay on OVCAR-4 ovarian, greater than 100 µM. Besides, the TGI with RPMI-8226 leukemia is greater than 100 µM; in the assay on T-47D breast, greater than 100 µM; in the assay on SNB-75 CNS, greater than 71.5 µM; in the assay on EKVX NSCLC, 33.4 µM; in the assay on MDA-MB-231 breast, greater than 85.2 µM; in the assay with UACC-62 melanoma, greater than 100 µM. In addition, the figures for the TGI with NCI-H460 lung and in the assay with NCI-H226 lung were greater than 84.5 µM and greater than 84.8 µM, respectively.

`CC1=C2C(=O)OCC23C=COC3(C)O1` (stereo not given): the TGI with OVCAR-5 ovarian, with PC-3 prostate, with A498 renal, with HCC-2998 colon, with CCRF-CEM leukemia and in the assay with ACHN renal was greater than 100 µM each time. For the same compound, the TGI with SF-295 CNS, in the assay on SR leukemia, in the assay with HCT-15 colon, in the assay with HCT-116 colon, in the assay on MDA-N and with OVCAR-4 ovarian was greater than 100 µM each time. Also, the TGI with RPMI-8226 leukemia is greater than 100 µM; in the assay on T-47D breast, greater than 100 µM; with SNB-75 CNS it was 77.3 µM; with EKVX NSCLC, greater than 100 µM; in the assay on MDA-MB-231 breast, greater than 100 µM; in the assay with UACC-62 melanoma it was 46.7 µM. Further, the figures for the TGI with NCI-H460 lung and in the assay with NCI-H226 lung were greater than 100 µM and 97.8 µM, respectively.

As for `O=c1[nH]c(-c2cccc(F)c2)nc2ccccc12`, the TGI with OVCAR-5 ovarian was greater than 100 µM; in the assay on PC-3 prostate, greater than 100 µM; in the assay on A498 renal, greater than 73.2 µM; in the assay on HCC-2998 colon it was greater than 100 µM; with CCRF-CEM leukemia, greater than 100 µM; in the assay with ACHN renal it was greater than 68.7 µM. The TGI with SF-295 CNS is greater than 72.7 µM; in the assay on SR leukemia, greater than 100 µM; in the assay on HCT-15 colon it was greater than 100 µM; in the assay on HCT-116 colon it was greater than 57.7 µM; in the assay on MDA-N, greater than 100 µM; in the assay with OVCAR-4 ovarian, greater than 65.9 µM. In addition, the TGI was greater than 100 µM in the assay with RPMI-8226 leukemia; greater than 100 µM in the assay on T-47D breast; 62.7 µM with SNB-75 CNS; greater than 100 µM in the assay on EKVX NSCLC; greater than 65.9 µM in the assay on MDA-MB-231 breast; greater than 67.3 µM with UACC-62 melanoma. Moreover, the TGI with NCI-H460 lung and with NCI-H226 lung was greater than 100 µM each time.

With `O=c1c2cc([N+](=O)[O-])ccc2n(Cc2ccccc2)n1Cc1ccccc1`, the TGI was greater than 31.6 µM in the assay on OVCAR-5 ovarian; 31 µM in the assay with PC-3 prostate; greater than 31.6 µM in the assay on A498 renal; greater than 31.6 µM with HCC-2998 colon; greater than 31.6 µM with CCRF-CEM leukemia; greater than 31.6 µM in the assay with ACHN renal. The TGI in the assay on SF-295 CNS was greater than 31.6 µM; with SR leukemia it was greater than 31.6 µM; in the assay with HCT-15 colon, greater than 31.6 µM; in the assay on HCT-116 colon it was greater than 31.6 µM; in the assay on MDA-N, 21.2 µM; in the assay with OVCAR-4 ovarian, greater than 31.6 µM. The TGI was 18.8 µM with RPMI-8226 leukemia; 24.7 µM with T-47D breast; greater than 31.6 µM in the assay with SNB-75 CNS; greater than 31.6 µM with EKVX NSCLC; 29.1 µM in the assay with MDA-MB-231 breast; 21.4 µM in the assay with UACC-62 melanoma. In addition, the TGI in the assay with NCI-H460 lung is 26.9 µM; in the assay with NCI-H226 lung, greater than 31.6 µM.

As for `CC(=O)CCNc1ccc(-c2cc(-c3ccc(N(C)C)cc3)nc3ccc4ccccc4c23)cc1`, the TGI in the assay with OVCAR-5 ovarian, with PC-3 prostate, with A498 renal, with HCC-2998 colon, in the assay on CCRF-CEM leukemia and with ACHN renal was greater than 100 µM each time. In addition, the TGI with SF-295 CNS, in the assay with SR leukemia, in the assay with HCT-15 colon, with HCT-116 colon, in the assay on MDA-N and in the assay with OVCAR-4 ovarian was greater than 100 µM each time. For the same compound, the TGI with RPMI-8226 leukemia, in the assay with T-47D breast, in the assay on SNB-75 CNS, with EKVX NSCLC, in the assay on MDA-MB-231 breast and in the assay with UACC-62 melanoma was greater than 100 µM throughout. In addition, the TGI with NCI-H460 lung was greater than 100 µM; in the assay on NCI-H226 lung, greater than 78.9 µM.
